Assays:
Phytophthora infestans = type: cell-based; settings: Phytophthora infestas; 1 mg/mL
F. graminearum = assay: microbe, parasite or virus in culture; type: cell-based; settings: for Average Diameter of the Colony: F. graminearum, 1 mg/mL; for inhibition at 1000 µg/mL: Fusarium graminearum, read-out: Inhibition Rate
Pyricularia grisea = assay: microbe, parasite or virus in culture; type: cell-based; settings: for Average Diameter of the Colony: 1 mg/mL; for inhibition at 1000 µg/mL: read-out: Inhibition Rate
E. polygoni = assay: In-vivo greenhouse control of marrow bean powdery mildew
Method: (§1) 3.88 g of 3-(3',4'-methylenedioxy phenyl)-N-n-propyl acrylamide was weighed and dissolved in 25 g of absolute ethyl alcohol, then 6 g of emulsifier 0203B was added, and mixed uniformly with stirring to get 10% of 3-(3',4'-methylenedioxy phenyl)-N-n-propyl acrylamide EC.
(§2) 5.61 g of 3-(3',4'-methylenedioxy phenyl)-piperidine acrylate was weighed and dissolved in 25 g of absolute ethyl alcohol, then 6 g of emulsifier 0203B was added, and mixed uniformly with stirring to get 14% of 3-(3',4'-methylenedioxy phenyl)-piperidine acrylate EC.
Marrow bean (Variety: Thailand Jiadouwang) was cultured in pots in a greenhouse, and inoculated with E. polygoni at the stage of 4 leaves. The first application was started at the early onset (onset at the first true leaf: first appearance of spots), comprising 10% of 3-(3',4'-methylenedioxy phenyl)-N-n-propyl acrylamide EC and 14% of 3-(3',4'-methylenedioxy phenyl)-piperidine acrylate EC, which were both diluted at three concentrations of 0.20, 0.143, 0.10 mg/mL (active ingredients), the control agent, 12.5% of myclobutanil EC (North China pharmaceutical Group, Ainuo Co. Ltd.), was also diluted at three concentrations of 0.20, 0.143, 0.10 mg/mL (active ingredients), additionally clear water was used as the control. Both sides of the leaves were sprayed evenly with a small hand-held sprayer so that the leaves were wetted by the liquor without loss. Applications were conducted every 7 days consecutively for 4 times. 10 days after the fourth application, the number of sick leaves at each grade of powdery mildew was investigated for the whole plant following the grading standard of 9 grades, to calculate the disease index and the control effect.

[1] = tested on: Blumeria graminis f.sp.tritici; assay: In-vivo greenhouse control of wheat powdery mildew; settings: winter wheat, 0.20 mg/mL (active ingredients), application from early onset
Method: as §1, §2
Winter wheat (Variety: Huixian Red) was sown in pots in a greenhouse, and inoculated with a fresh spore suspension of Blumeria graminis f.sp.tritici by spraying on its leaves and stems at the stage of 2 leaves. The first application was started at the early onset of powdery mildew. Both sides of the leaves were sprayed evenly with a small hand-held sprayer so that the leaves were wetted by the liquor without loss. 10% of 3-(3',4'-methylenedioxy phenyl)-N-n-propyl acrylamide EC and 14% of 3-(3',4'-methylenedioxy phenyl)-piperidine acrylate EC were both diluted at two concentrations of 0.20 and 0.143 mg/mL (active ingredients), and the control agent, 15% of triazolone WP, was also diluted at two concentrations of 0.20 and 0.143 mg/mL (active ingredients), additionally clear water was used as the control. […]

zucchini powdery mildew = assay: Field efficiency test, zucchini powdery mildew; type: in vivo; settings: 0.50 mg/mL (active ingredients)
Text: The formulation of emulsifiable concentrate is the same as that in Embodiment 3.
(§3) The variety of zucchini was Zaoqing F1 (manufactured by Wuwei Dadi Seed Industry Co., Ltd.), which was sown on July 29th, 2016. The first application was started on August 26th, at the early onset of powdery mildew (the average disease index is 10.07). The instrument for application was Agrolex HD 400 Model hand operating knapsack sprayer, which employed a cone nozzle. Each agent was formulated into the desired concentrations according to the usage amount of the control clear water. Both sides of the leaves were sprayed evenly so that the leaves were wetted by the liquor without loss. 10% of 3-(3',4'-methylenedioxy phenyl)-N-n-propyl acrylamide EC and 14% of 3-(3',4'-methylenedioxy phenyl)-piperidine acrylate EC were both diluted at a concentration of 0.50 mg/mL (active ingredients); the control agent, 430 g/L of tebuconazole SC (manufactured by Yantai Keda Chemical Co., Ltd.) was also diluted at a concentration of 0.50 mg/mL (active ingredients); additionally clear water was used as the control. Thereafter, applications were conducted every 7 days consecutively for 4 times. 10 days after the last application, the number of sick leaves at each grade of powdery mildew was investigated for the whole plant following the grading standard of 9 grades, to calculate the disease index and the control effect.

[2] = tested on: zucchini, cucumber, flax, and tomato; assay: Crop safety in the field efficiency tests; type: in vivo; settings: at the test doses
Text: as §3
The variety of flax is Zhangya No. 2. […]

[3] = 0.10 mg/mL (active ingredients)
[4] = 0.143 mg/mL (active ingredients)
[5] = 0.20 mg/mL (active ingredients)

SMILES	Average Diameter of the Colony (Phytophthora infestans)	Average Diameter of the Colony (F. graminearum)	inhibition at 1000 µg/mL (F. graminearum)	Average Diameter of the Colony (Pyricularia grisea)	inhibition at 1000 µg/mL (Pyricularia grisea)	Control Effect (E. polygoni; [3])	Control Effect (E. polygoni; [4])	Control Effect (E. polygoni; [5])	Control Effect [1]	Control Effect (zucchini powdery mildew)	safety for zucchini, cucumber, flax, and tomato [2]
CCCNC(=O)/C=C/c1ccc2c(c1)OCO2 [3-(3',4'-methylenedioxyphenyl)-N-n-propyl acrylamide]	2.05 cm	3.49 cm	59.4%	5.30 cm	41.1%	84.19%	92.58%	93.53%	86.97%	60.24%	safe for zucchini, cucumber, flax, and tomato
O=C(/C=C/c1ccc2c(c1)OCO2)N1CCCCC1 [3-(3',4'-methylenedioxyphenyl)-piperidine acrylate]	0.81 cm	0.00 cm	100%	1.60 cm	82.2%	74.97%	89.40%	91.55%	59.11%	30.04%	safe for zucchini, cucumber, flax, and tomato

Reference: patent publication EP3818828A1 (priority 2019, dated 2021)
